{"source": "the supplement of paper PMC11208160", "data": [{"test": "recombinant UMI read abundance after kanamycin selection (control-corrected) (log10(CPM+1)); higher = more efficient recombination; extreme values may be limits of the assay; sequences stand for … in AGTGCAGAGAAAATCGGCCAGTTTTCTCTGCCTGCAGTCCGCATGCCGTGGGACCCCTTGGGTTCTAACCTGTTGCCTAGATTTATGCAGCGGACTGCCTTTCTCCCAAAGTGATAAACCGG…AGGTTGGTTTCACT; site = the 11-nt donor", "outline": "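For the IS621 bridge recombinase, a pooled Escherichia coli screen tested donor and donor-binding-loop pairs. Cells received the pair library together with a target plasmid encoding a fixed target and T7-inducible recombinase, then went onto IPTG (0.07 mM) plus kanamycin or unselected plates in duplicate. After PCR across the donor–target junction and sequencing, recombinant UMI counts were normalized to CPM, averaged, and scaled by control-derived factors. Each value is given as log10(CPM+1).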", "values": [{"sequence": "CGGGAGTCATGGACCGGTTTTCCCGGTAATCCGTATTTGCC (site GGGGAGTCTGG)", "recombinant UMI read abundance (log10)": 0}, {"sequence": "ACAGGAACATGGACCGGTTTTCCCGGTAATCCGTATTTGTC (site ACAGGAACTGA)", "recombinant UMI read abundance (log10)": 2.43}, {"sequence": "CGTTGGGCATGGACCGGTTTTCCCGGTAATCCGTATTTGCT (site CGTTGGGCTAG)", "recombinant UMI read abundance (log10)": 1.65}, {"sequence": "CGGAATCCATGGACCGGTTTTCCCGGTAATCCGTATTTGTT (site CGAAATCCTAG)", "recombinant UMI read abundance (log10)": 0}, {"sequence": "AATCATGCATGGACCGGTTTTCCCGGTAATCCGTATTTGGA (site AATCATGCTTC)", "recombinant UMI read abundance (log10)": 0.584}, {"sequence": "ATGGTCGCATGGACCGGTTTTCCCGGTAATCCGTATTTGTT (site ATGGTCGCTAA)", "recombinant UMI read abundance (log10)": 1.29}, {"sequence": "ACGTAGACATGGACCGGTTTTCCCGGTAATCCGTATTTGGG (site ACTTAGACTCC)", "recombinant UMI read abundance (log10)": 0.0197}, {"sequence": "CAAGCGGCATGGACCGGTTTTCCCGGTAATCCGTATTTGCT (site CAAGCGGCTAG)", "recombinant UMI read abundance (log10)": 1.72}, {"sequence": "TTTGTGGCATGGACCGGTTTTCCCGGTAATCCGTATTTGCT (site TTTGGGGCTAG)", "recombinant UMI read abundance (log10)": 0.022}, {"sequence": "CAAGTATCATGGACCGGTTTTCCCGGTAATCCGTATTTGAG (site CAAGTATCTCT)", "recombinant UMI read abundance (log10)": 3.07}, {"sequence": "ACAAAGGCATGGACCGGTTTTCCCGGTAATCCGTATTTGCT (site ACAAAGGCTAG)", "recombinant UMI read abundance (log10)": 2.57}, {"sequence": "TTTCAGGCATGGACCGGTTTTCCCGGTAATCCGTATTTGAG (site TTTCAGGCTCT)", "recombinant UMI read abundance (log10)": 0.155}, {"sequence": "TCAGCTCCATGGACCGGTTTTCCCGGTAATCCGTATTTGGC (site TCAGCTCCTGC)", "recombinant UMI read abundance (log10)": 0.823}, {"sequence": "GCGAAGACATGGACCGGTTTTCCCGGTAATCCGTATTTGGG (site GCGAAGCCTCC)", "recombinant UMI read abundance (log10)": 0}, {"sequence": "TAGCTTTCATGGACCGGTTTTCCCGGTAATCCGTATTTGGT (site TAGCCTTCTAC)", "recombinant UMI read abundance (log10)": 0.157}, {"sequence": "ATTGACACATGGACCGGTTTTCCCGGTAATCCGTATTTGGT (site ATTGAAACTAC)", "recombinant UMI read abundance (log10)": 0.168}, {"sequence": "CTGTTAGCATGGACCGGTTTTCCCGGTAATCCGTATTTGTG (site CAGTTAGCTCA)", "recombinant UMI read abundance (log10)": 0.669}, {"sequence": "CGGAATGCATGGACCGGTTTTCCCGGTAATCCGTATTTGTG (site CGGAATGCTCA)", "recombinant UMI read abundance (log10)": 2.58}, {"sequence": "CGCCGTACATGGACCGGTTTTCCCGGTAATCCGTATTTGCT (site CGCCGTCCTAG)", "recombinant UMI read abundance (log10)": 0}, {"sequence": "AATGTAACATGGACCGGTTTTCCCGGTAATCCGTATTTGTT (site AATGTAACTAA)", "recombinant UMI read abundance (log10)": 0.321}, {"sequence": "TAATGAGCATGGACCGGTTTTCCCGGTAATCCGTATTTGCG (site TAATGAGCTCC)", "recombinant UMI read abundance (log10)": 0.00423}, {"sequence": "TAGTTGACATGGACCGGTTTTCCCGGTAATCCGTATTTGCT (site TATTTGACTAG)", "recombinant UMI read abundance (log10)": 0.0101}, {"sequence": "GACAAACCATGGACCGGTTTTCCCGGTAATCCGTATTTGGT (site GACAACCCTAC)", "recombinant UMI read abundance (log10)": 0}, {"sequence": "GCGAGCACATGGACCGGTTTTCCCGGTAATCCGTATTTGGC (site GCGAGCACTGC)", "recombinant UMI read abundance (log10)": 3.27}, {"sequence": "ATCCTTGCATGGACCGGTTTTCCCGGTAATCCGTATTTGAT (site ATCCTTGCTAT)", "recombinant UMI read abundance (log10)": 2.19}, {"sequence": "ATAAGGTCATGGACCGGTTTTCCCGGTAATCCGTATTTGAC (site ATAAGGGCTGT)", "recombinant UMI read abundance (log10)": 0.526}, {"sequence": "ATCCCAGCATGGACCGGTTTTCCCGGTAATCCGTATTTGAG (site ATCCGAGCTCT)", "recombinant UMI read abundance (log10)": 0.00574}, {"sequence": "TAAATGACATGGACCGGTTTTCCCGGTAATCCGTATTTGGA (site TAAATGACTTC)", "recombinant UMI read abundance (log10)": 1.23}, {"sequence": "GTACGCACATGGACCGGTTTTCCCGGTAATCCGTATTTGTA (site GTATGCACTTA)", "recombinant UMI read abundance (log10)": 0.266}, {"sequence": "GGTCCAACATGGACCGGTTTTCCCGGTAATCCGTATTTGTA (site GATCCAACTTA)", "recombinant UMI read abundance (log10)": 0.0069}, {"sequence": "CCTTATACATGGACCGGTTTTCCCGGTAATCCGTATTTGAG (site CCTTATACTCT)", "recombinant UMI read abundance (log10)": 0.0212}, {"sequence": "GCGCCCACATGGACCGGTTTTCCCGGTAATCCGTATTTGGA (site GCGCCCACTTC)", "recombinant UMI read abundance (log10)": 0.365}, {"sequence": "AGTACTACATGGACCGGTTTTCCCGGTAATCCGTATTTGAC (site AGAACTACTGT)", "recombinant UMI read abundance (log10)": 0.731}, {"sequence": "TGCCTCGCATGGACCGGTTTTCCCGGTAATCCGTATTTGGG (site TGCCTCGCTCC)", "recombinant UMI read abundance (log10)": 0.0166}, {"sequence": "CAAGGCCCATGGACCGGTTTTCCCGGTAATCCGTATTTGTT (site CATGGCCCTAA)", "recombinant UMI read abundance (log10)": 0.0187}, {"sequence": "AGGGTCACATGGACCGGTTTTCCCGGTAATCCGTATTTGAG (site AGGGTCACTCT)", "recombinant UMI read abundance (log10)": 1.39}, {"sequence": "CGTGAGACATGGACCGGTTTTCCCGGTAATCCGTATTTGAG (site CGTCAGACTCT)", "recombinant UMI read abundance (log10)": 0.00623}, {"sequence": "CGATCATCATGGACCGGTTTTCCCGGTAATCCGTATTTGCT (site CGATTATCTAA)", "recombinant UMI read abundance (log10)": 0}, {"sequence": "TAGAATACATGGACCGGTTTTCCCGGTAATCCGTATTTGCA (site TAGATTACTTG)", "recombinant UMI read abundance (log10)": 0.00714}, {"sequence": "CGGGAACCATGGACCGGTTTTCCCGGTAATCCGTATTTGAC (site CGGGAACCTAT)", "recombinant UMI read abundance (log10)": 0}, {"sequence": "CTGTTAGCATGGACCGGTTTTCCCGGTAATCCGTATTTGTG (site CCGTTAGCTCA)", "recombinant UMI read abundance (log10)": 0.102}, {"sequence": "CGAAGACCATGGACCGGTTTTCCCGGTAATCCGTATTTGGG (site CGAGGACCTCC)", "recombinant UMI read abundance (log10)": 0.0232}, {"sequence": "CGTGAGACATGGACCGGTTTTCCCGGTAATCCGTATTTGAG (site CGTTAGACTCT)", "recombinant UMI read abundance (log10)": 0.167}, {"sequence": "CGATCATCATGGACCGGTTTTCCCGGTAATCCGTATTTGCT (site CGATCCTCTCG)", "recombinant UMI read abundance (log10)": 0.00562}, {"sequence": "TAAAGTCCATGGACCGGTTTTCCCGGTAATCCGTATTTGTA (site TAAAGACCTTA)", "recombinant UMI read abundance (log10)": 0.00959}, {"sequence": "AGAGCCCCATGGACCGGTTTTCCCGGTAATCCGTATTTGCA (site AGAGCCCCTTG)", "recombinant UMI read abundance (log10)": 1.71}, {"sequence": "GGCCACCCATGGACCGGTTTTCCCGGTAATCCGTATTTGTG (site GGCCACCCTGA)", "recombinant UMI read abundance (log10)": 0}, {"sequence": "AAAACTGCATGGACCGGTTTTCCCGGTAATCCGTATTTGAA (site AAAACTGCTTT)", "recombinant UMI read abundance (log10)": 0.637}, {"sequence": "CGATCATCATGGACCGGTTTTCCCGGTAATCCGTATTTGCT (site CGAGCTTCTAG)", "recombinant UMI read abundance (log10)": 0}, {"sequence": "CCTAATACATGGACCGGTTTTCCCGGTAATCCGTATTTGGT (site CCTAATACTGC)", "recombinant UMI read abundance (log10)": 0}, {"sequence": "GCGTTTCCATGGACCGGTTTTCCCGGTAATCCGTATTTGCT (site GCGTTTCCTAG)", "recombinant UMI read abundance (log10)": 1.81}, {"sequence": "ACACTATCATGGACCGGTTTTCCCGGTAATCCGTATTTGCA (site ACACTATCTTG)", "recombinant UMI read abundance (log10)": 2.85}, {"sequence": "GGCTATCCATGGACCGGTTTTCCCGGTAATCCGTATTTGAA (site GGCCATCCTTT)", "recombinant UMI read abundance (log10)": 0.0272}, {"sequence": "CACCTGCCATGGACCGGTTTTCCCGGTAATCCGTATTTGTC (site CACCTGCCTGA)", "recombinant UMI read abundance (log10)": 0}, {"sequence": "TAGCTGGCATGGACCGGTTTTCCCGGTAATCCGTATTTGAA (site TAGCTAGCTTT)", "recombinant UMI read abundance (log10)": 0.588}, {"sequence": "AATTGCTCATGGACCGGTTTTCCCGGTAATCCGTATTTGCC (site AATTGCTCTGG)", "recombinant UMI read abundance (log10)": 2.51}, {"sequence": "TTTGTGGCATGGACCGGTTTTCCCGGTAATCCGTATTTGCT (site TTTGAGGCTAG)", "recombinant UMI read abundance (log10)": 0}, {"sequence": "GTTGTTTCATGGACCGGTTTTCCCGGTAATCCGTATTTGGT (site GTTGTTGCTAC)", "recombinant UMI read abundance (log10)": 0.0146}, {"sequence": "CAAGGGCCATGGACCGGTTTTCCCGGTAATCCGTATTTGTG (site CAAGCGCCTCA)", "recombinant UMI read abundance (log10)": 0.0177}, {"sequence": "TGAGGTCCATGGACCGGTTTTCCCGGTAATCCGTATTTGAA (site TGAGGTCCTTT)", "recombinant UMI read abundance (log10)": 0.00722}, {"sequence": "GACATACCATGGACCGGTTTTCCCGGTAATCCGTATTTGGT (site GACATACCTAC)", "recombinant UMI read abundance (log10)": 0.0102}, {"sequence": "TCGAATACATGGACCGGTTTTCCCGGTAATCCGTATTTGAG (site TCGAATACTCT)", "recombinant UMI read abundance (log10)": 1.44}, {"sequence": "AACCTTCCATGGACCGGTTTTCCCGGTAATCCGTATTTGCC (site AACCTTCCTGG)", "recombinant UMI read abundance (log10)": 0}, {"sequence": "TAAGGAGCATGGACCGGTTTTCCCGGTAATCCGTATTTGGG (site TAAGGAGCTCC)", "recombinant UMI read abundance (log10)": 0.164}, {"sequence": "CGGAATCCATGGACCGGTTTTCCCGGTAATCCGTATTTGTT (site CAGAATCCTAT)", "recombinant UMI read abundance (log10)": 0}, {"sequence": "GGATAGACATGGACCGGTTTTCCCGGTAATCCGTATTTGCG (site GGATAGACTAG)", "recombinant UMI read abundance (log10)": 2.19}, {"sequence": "CATGCAGCATGGACCGGTTTTCCCGGTAATCCGTATTTGCT (site CACGCAGCTAG)", "recombinant UMI read abundance (log10)": 1.29}, {"sequence": "CGATCATCATGGACCGGTTTTCCCGGTAATCCGTATTTGCT (site CGATTAGCTAG)", "recombinant UMI read abundance (log10)": 0.0161}, {"sequence": "TAAAGTCCATGGACCGGTTTTCCCGGTAATCCGTATTTGTA (site TACAGTCCTTA)", "recombinant UMI read abundance (log10)": 0}, {"sequence": "TAAATTCCATGGACCGGTTTTCCCGGTAATCCGTATTTGTA (site TAAAGTCCTTA)", "recombinant UMI read abundance (log10)": 0.471}, {"sequence": "CCCTAGCCATGGACCGGTTTTCCCGGTAATCCGTATTTGGC (site CCCTAGCCTGA)", "recombinant UMI read abundance (log10)": 0}, {"sequence": "AACCGTCCATGGACCGGTTTTCCCGGTAATCCGTATTTGAG (site AACCGTCCTAT)", "recombinant UMI read abundance (log10)": 0.0112}, {"sequence": "ACCCTAGCATGGACCGGTTTTCCCGGTAATCCGTATTTGTT (site ACCCTAGCTAA)", "recombinant UMI read abundance (log10)": 0}, {"sequence": "AACCGTCCATGGACCGGTTTTCCCGGTAATCCGTATTTGAC (site AACCGTCCTGT)", "recombinant UMI read abundance (log10)": 0.786}, {"sequence": "ATTGGGACATGGACCGGTTTTCCCGGTAATCCGTATTTGGT (site ATTGTGACTAC)", "recombinant UMI read abundance (log10)": 0.0209}]}]}
